Here are results for 86 compounds from a melting point compilation (Tetko et al.).

For orientation: melting point means the temperature of the solid-liquid transition. Turning to `CCCCN(C)S(=O)(=O)c1ccc(N)cc1`, the melting point was in the range of 76 to 80 °C. On to `Nc1ccc(CC(=O)N2CCOCC2)cc1`, for which the melting point is 164 to 166 °C. For the compound `CC(=O)CC(=O)Nc1ccc2nc(C)sc2c1`, the melting point was in the range of 129 to 131 °C. The compound `Cc1ccc(C)c(-c2cnnc(N)n2)c1` came in with a melting point of 179 to 181 °C. Under `OCc1noc(-c2ccc(F)cc2)n1` stands 96 to 98 °C; under `Cc1cccc(C(=O)O)c1NC(=O)c1ccncc1`, 249 to 251 °C; under `O=C(O)Cc1csc(-c2ccsc2)n1`, 110 to 112 °C.

`Cc1c(C)n(CCc2ccccn2)c2[nH]cnc(=N)c12` displayed a melting point of 132 to 134 °C.

In the case of `COC(=O)c1c(NC(=O)CCl)sc(C)c1C`, the melting point fell in the range of 143 to 145 °C. Compound `N#Cc1c(N2CCOCC2)n[nH]c1N` gave a melting point of 195 to 197 °C. In turn, `O=S(=O)(Cl)c1cn[nH]c1` had a melting point of 99 to 101 °C. The value for `CC(CO)N1Cc2cccc(N)c2C1` (stereo unspecified) was 129 to 131 °C; that for `Cc1cc(C)c(S(=O)(=O)Cl)c(C)c1NS(C)(=O)=O` was 175 to 177 °C; that for `Cc1cc(C)c(C)c(Oc2c(C#N)c(C)nn2C)c1` was 69 to 71 °C. Take `N#CC1(c2ccc3c(c2)OCO3)CC1`: the melting point lay in the range of 73 to 75 °C. As for `CS(=O)(=O)c1ccc(CN)cc1`, the melting point lay in the range of 272 to 274 °C. `COCCN1C(=O)c2ccc(C(=O)O)cc2S1(=O)=O` showed a melting point of 151 to 153 °C. Under `O=S(=O)(Cc1nc2ccccc2[nH]1)c1ccccc1` stands 215 to 217 °C; under `Nc1cnn(CC(=O)NCCO)c1`, 98 to 100 °C. Turning to `CCN(CC)S(=O)(=O)CC(=O)O`, the melting point fell in the range of 59 to 61 °C. Regarding `Cc1cc(C(=O)O)c2cnn(C)c2n1`, the melting point was in the range of 284 to 286 °C.

Consider `Cc1cc(C#N)ccc1NC1CC1`, for which the melting point was in the range of 101 to 103 °C. The value for `CC1NC(=O)c2ccccc2NC1=O` (stereo unspecified) was 337 to 339 °C.

In turn, `O=C1CCc2cc(OCCO)ccc2N1` came in with a melting point of 180 to 182 °C. `Cc1nc2c(c(C)c1CN)c(=O)[nH]n2C` came in with a melting point of 311 to 313 °C. In the case of `CCc1ccccc1-n1cc(O)c(C(=O)O)n1`, the melting point was 101 to 103 °C. `NC(=O)c1cncs1` showed a melting point of 194 to 196 °C.

In turn, `Nc1ccc(F)c(NC(=O)Cc2ccccc2)c1` displayed a melting point of 180 to 182 °C. Under `NS(=O)(=O)c1cnn(CC(=O)O)c1` stands 156 to 158 °C; under `Cn1cc(C(=O)O)c(-c2ccc(F)cc2F)n1`, 231 to 233 °C; under `O=C(O)c1ccc(NS(=O)(=O)c2ccc(F)c(Cl)c2)cc1`, 240 to 242 °C. In the case of `Cc1cc(N)ccc1OCCN1CCCC1`, the melting point lay in the range of 112 to 114 °C. With `CC1CC1c1cc(N)n(-c2ccccc2)n1` (stereo unspecified), the melting point was in the range of 92 to 94 °C.

With `Cc1c(O)ccc2c(CCl)cc(=O)oc12`, the melting point lay within 268 to 270 °C.

Compound `NNC(=O)C1CCN(c2ncccn2)CC1` gave a melting point of 237 to 239 °C.

The compound `CC(NC(=O)OCc1ccccc1)C(=O)N1CCNC(=O)C1` (stereo unspecified) gave a melting point of 154 to 156 °C.

With `O=C(O)c1cccc2[nH]cnc12`, the melting point is 326 to 330 °C. The value for `Cc1ccc(-c2nnc(-c3ccc(C(=O)O)cc3)o2)cc1` was 250 to 252 °C; that for `NNC(=O)CC1CCCC1` was 82 to 84 °C. For `O=C(O)C1CCCN1C(=O)Cc1cccs1` (stereo unspecified), the melting point is 139 to 141 °C.

In turn, `CCCS(=O)(=O)N1CCC(=NO)CC1` yielded a melting point of 146 to 148 °C. The compound `COc1ccccc1C(C#N)NC(=O)OC(C)(C)C` (stereo unspecified) gave a melting point of 79 to 81 °C. In turn, `Cc1nc(Cc2ccccn2)sc1C(=O)O` registered a melting point of 189 to 191 °C.

`COc1cccc(C2CC(=O)CC(=O)C2)c1` displayed a melting point of 131 to 133 °C. For the compound `Nc1cc(-c2cc(Cl)cc(Cl)c2)[nH]n1`, the melting point lay in the range of 159 to 161 °C. The compound `CCS(=O)(=O)Nc1cc(Br)ccc1OC` came in with a melting point of 105 to 107 °C.

The compound `Nc1nc2c(F)cc(F)cc2s1` had a melting point of 197 to 199 °C. As for `CC(C)(C)C(=O)N1CCCC1C(=O)O` (stereo unspecified), the melting point was in the range of 136 to 138 °C. `COc1ccc([N+](=O)[O-])cc1NC(=O)CCCl` yielded a melting point of 159 to 161 °C. As for `COc1ccc2[nH]c(C(=O)O)cc2c1OC(F)F`, the melting point was 231 to 233 °C. Under `CCOC(=O)C(NC(C)=O)C(C)=O` (stereo unspecified) stands 44 to 46 °C. `CCCn1c(S)nnc1CO`: the melting point is 119 to 121 °C. Compound `O=C(CCl)NC1CCOCC1` had a melting point of 82 to 84 °C. The compound `O=C(O)c1cc2c(F)cccc2[nH]1` showed a melting point of 209 to 211 °C. Under `O=Cc1ccc(OCc2occc2C(=O)O)cc1` stands 145 to 147 °C.

For the compound `COC(=O)C=Cc1ccc(C(F)(F)F)cc1`, the melting point was in the range of 74 to 76 °C. `Cc1ccn2c(CN3CCNCC3)c(C)nc2c1` showed a melting point of 97 to 99 °C. `CC1Oc2ccc(Br)cc2NC1=O` (stereo unspecified) showed a melting point of 189 to 191 °C. Turning to `CC1(C(=O)O)CCCc2ccccc21` (stereo unspecified), the melting point is 113 to 115 °C. For the compound `O=C(O)c1ccccc1SCC(F)(F)F`, the melting point was 169 to 171 °C.

Consider `N#Cc1cccc(NC(=O)c2ccccc2F)c1`, for which the melting point fell in the range of 132 to 134 °C. On to `O=C1CCSc2ccc(Br)cc21`, for which the melting point lay in the range of 49 to 51 °C.

Consider `O=C(O)C=Cc1ccc(S(=O)(=O)Nc2cccc(C(F)(F)F)c2)cc1`, for which the melting point was in the range of 224 to 226 °C. In turn, `CC(C(=O)O)c1ccc2c(c1)OCCO2` (stereo unspecified) returned a melting point of 77 to 79 °C.

The compound `CC(=O)N1Cc2ccc(N)cc2C1` came in with a melting point of 169 to 171 °C. `O=C1CC(C2CCCCN2)CN1` (stereo unspecified) returned a melting point of 62 to 64 °C.

The compound `O=C(Nc1ccc(-n2cncn2)nc1)OCC(F)(F)F` showed a melting point of 192 to 194 °C. `Nc1ccc(S(=O)(=O)Nc2cccc(C(F)(F)F)c2)cc1N` gave a melting point of 143 to 147 °C. With `CC1CC(C)CN(S(=O)(=O)c2ccc(NN)nc2)C1` (stereo unspecified), the melting point was 217 to 219 °C. `Cc1cc(Cl)n2nc(C(F)(F)F)nc2n1` displayed a melting point of 106 to 108 °C.

Regarding `O=C1CN=C(S)N1c1ccccc1`, the melting point was in the range of 253 to 255 °C. As for `N#Cc1ccc(Oc2cccnc2)cc1`, the melting point lay in the range of 50 to 52 °C.

As to `N#CCCN(C(=O)CCl)c1ccc(F)cc1`, the melting point is 85 to 87 °C. Compound `Cc1cc(NS(C)(=O)=O)ccc1Br` showed a melting point of 102 to 104 °C. In the case of `N#CCc1nc(-c2c(F)cccc2F)cs1`, the melting point fell in the range of 75 to 77 °C. Under `COCc1cc([N+](=O)[O-])ccc1Cl` stands 43 to 45 °C; under `O=C1NC(=O)c2cc(F)ccc21`, 183 to 185 °C; under `CSCc1ccc(C(=O)O)cc1`, 145 to 147 °C. Compound `NS(=O)(=O)c1ccc(-n2cccn2)c(F)c1` came in with a melting point of 190 to 192 °C. `Nc1nnc(-c2ccc3ccccc3c2)o1` returned a melting point of 274 to 276 °C. The value for `O=C(O)c1cc(S(=O)(=O)N2CCCCC2)ccc1N1CCCC1` was 120 to 122 °C. In the case of `O=C(O)CNC(=O)c1cccs1`, the melting point was 169 to 171 °C. For `NC(=S)Nc1ccc2c(c1)CCC2`, the melting point lay within 179 to 181 °C. With `Clc1ccc(CBr)c2ncccc12`, the melting point fell in the range of 94 to 96 °C.

For the compound `Clc1cc(OCc2ccccc2)ccn1`, the melting point is 93 to 95 °C. `Cc1ccc2c(CC(=O)O)coc2c1` yielded a melting point of 140 to 142 °C.
